{
  "source": "patent US20060241145A1",
  "about": "“Piperidine derivative crystal, process for producing the same, and use” (priority 2005, published 2006)",
  "key": {"[1]": {"target": "T1, substance P receptor (Homo sapiens, UniProt P25103)", "T1 construct": "The receptors were prepared from human lymphoblast cells (IM-9); endogenous in cells; host or cells: IM-9 human lymphoblast cells (membrane preparation)", "T1 sequence (P25103 whole entry)": "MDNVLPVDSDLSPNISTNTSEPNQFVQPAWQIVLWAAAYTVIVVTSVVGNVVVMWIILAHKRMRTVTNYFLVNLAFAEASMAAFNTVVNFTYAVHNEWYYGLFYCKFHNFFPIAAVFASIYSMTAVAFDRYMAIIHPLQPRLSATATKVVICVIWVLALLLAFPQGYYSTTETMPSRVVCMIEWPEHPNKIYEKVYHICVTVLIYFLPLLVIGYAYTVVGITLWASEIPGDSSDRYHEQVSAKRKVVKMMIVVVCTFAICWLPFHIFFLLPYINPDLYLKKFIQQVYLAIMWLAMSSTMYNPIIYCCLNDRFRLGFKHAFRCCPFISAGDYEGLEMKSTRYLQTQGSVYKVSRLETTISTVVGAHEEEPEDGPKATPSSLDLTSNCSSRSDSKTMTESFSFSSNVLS", "experiment": "Radioligand receptor binding inhibitory activity (binding inhibitory activity using receptor from human lymphoblast cells (IM-9))", "settings": "125I-BHSP (substance P labeled with [125I]), receptor from IM-9 cells, 25° C. 30 min", "description": "Radioligand receptor binding inhibitory activity (Binding inhibitory activity using receptor from human lymphoblast cells (IM-9))\nThe method of M. A. Cascieri et al., “Molecular Pharmacology 42, p. 458 (1992)” was modified and used. The receptors were prepared from human lymphoblast cells (IM-9). IM-9 cells (2×10^5 cells/mL) were incubated for 3 days (one liter), which were then subjected to centrifuge for 5 min. at 500×G to obtain cell pellets. The obtained pellets were washed once with phosphate buffer (Flow Laboratories, CAT. No. 28-103-05), which were then homogenized using Polytron homogenizer (“Kinematika”, Germany) in 30 mL of 50 mM Tris-HCl buffer (pH 7.4) containing 120 mM sodium chloride, 5 mM potassium chloride, 2 μg/mL chymostatin, 40 μg/mL bacitracin, 5 μg/mL phosphoramidon, 0.5 mM phenylmethylsulfonyl fluoride, 1 mM ethylenediamine tetra-acetate, which was subjected to centrifuge at 40,000×G for 20 min. The residue was washed twice with 30 mL of the buffer, which was then preserved frozen (−80° C.) as a specimen of the receptors.\nThe specimen was suspended in a reaction buffer (50 mM Tris-HCl buffer (pH 7.4), 0.02% bovine serum albumin, 1 mM phenylmethylsulfonyl fluoride, 2 μg/mL chymostatin, 40 μg/mL bacitracin and 3 mM manganese chloride) to have protein in the concentration of 0.5 mg/mL of protein and 100 μL portion of the suspension was used in the reaction. After addition of the sample and ^125I-BHSP (0.46 KBq), the reaction was allowed to proceed in 0.2 mL of reaction buffer at 25° C. for 30 min. The amount of nonspecific binding was determined by adding substance P at a final concentration of 2×10^−6 M.\nAfter the reaction, using a cell harvester (290 PHD, Cambridge Technology, Inc, U.S.A.), the reaction solution was filterd through a glass filter (GF/B, Whatman, U.S.A.), which was immersed in 0.1% polyethyleneimine for 24 hrs. and dried. After washing three times with 250 μL of 50 mM Tris-HCl buffer (pH 7.4) containing 0.02% bovine serum albumin, the radioactivity remaining on the filter was determined with a gamma counter.\nThe antagonistic activity of each compound obtained in Examples was determined in terms of the concentration necessary to cause 50% inhibition (IC50 value) under the above-described conditions, and the results were shown in Table 9.\nThe radio ligand means substance P labeled with [^125I]."}, "[2]": {"system": "urethane anesthetized male guinea pigs", "experiment": "Bladder capacity increasing action in urethane anesthetized guinea pigs", "type": "in vivo, guinea pig", "settings": "for changes in bladder capacity (vs. before administration, %) / changes in voiding pressure (vs. before administration, %): mean ± standard error; for effect on bladder capacity (in words) / effect on voiding pressure (in words): intravenous, summary of Table 10", "text": "Bladder Capacity Increasing Activity of Tachykinin Receptor Antagonist, Oxybutynin and Tolterodine (Bladder Capacity Increasing Action in Urethane Anesthetized Guinea Pigs)\nA urinary frequency/urinary incontinence suppressing effect of a substance having antagonistic action for tachykinin receptors was shown in terms of the ability to increase bladder capacity in urethane anesthetized male guinea pigs and compared with that of oxybutynin and tolterodine, which are therapeutic drugs for overactive bladder. Using male guinea pig under anesthesia, after emptying the bladder by suction, saline was infused into the bladder at a constant rate (0.3 mL/min.) until voiding. This procedure was repeated to confirm stable bladder capacity (amount of saline injected before induction of voiding). After confirming a stable response, a compound dissolved in DMSO was intravenously administered and the action was measured. Changes in the bladder capacity and voiding pressure after drug administration were measured."}},
  "note": "pIC50: −log10 of the molar value. Counter-ions that a name gives are not always drawn.",
  "data": [
    {"molecule": "COc1ccc(-n2nnnc2C(F)(F)F)cc1CN[C@H]1CCN(C(=O)C(O)NC(C)=O)C[C@H]1c1ccccc1", "note": "(single isomer, unassigned) [Example 12]", "values": [
      {"measurement": "pIC50", "setting": "[1]", "result": 10.80}
    ]},
    {"molecule": "COc1ccc(-n2nnnc2C(F)(F)F)cc1CN[C@H]1CCN(C(=O)C(O)NC(C)=O)C[C@H]1c1ccccc1", "note": "(single isomer, unassigned) [Example 13]", "values": [
      {"measurement": "pIC50", "setting": "[1]", "result": 10.21}
    ]},
    {"molecule": "COc1ccc(-n2nnnc2C(F)(F)F)cc1CN[C@H]1CCN(C(=O)CNC=O)C[C@H]1c1ccccc1", "note": "[Example 5, {2-[(3R,4S)-4-({2-methoxy-5-[5-(trifluoromethyl)-1H-tetrazol-1-yl]benzyl}amino)-3-phenylpiperidin-1-yl]-2-oxoethyl}formamide]", "values": [
      {"measurement": "pIC50", "setting": "[1]", "result": 10.77}
    ]},
    {"molecule": "COc1ccc(-n2nnnc2C(F)(F)F)cc1CN[C@H]1CCN(C(C)=O)C[C@H]1c1ccccc1", "note": "[Example 6, (3R,4S)-1-acetyl-N-{2-methoxy-5-[5-(trifluoromethyl)-1H-tetrazol-1-yl]benzyl}-3-phenylpiperidine-4-amine monohydrochloride]", "values": [
      {"measurement": "pIC50", "setting": "[1]", "result": 10.59}
    ]},
    {"molecule": "COc1ccc(-n2nnnc2C(F)(F)F)cc1CN[C@H]1CCN(C(=O)CN2C(=O)CCC2=O)C[C@H]1c1ccccc1", "note": "[Example 7, 1-{2-[(3R,4S)-4-({2-methoxy-5-[5-(trifluoromethyl)-1H-tetrazol-1-yl]benzyl}amino)-3-phenylpiperidin-1-yl]-2-oxoethyl}pyrrolidine-2,5-dione monohydrochloride]", "values": [
      {"measurement": "pIC50", "setting": "[1]", "result": 10.82}
    ]},
    {"molecule": "COc1ccc(-n2nnnc2C(F)(F)F)cc1CN[C@H]1CCN(C(=O)CS(C)(=O)=O)C[C@H]1c1ccccc1", "note": "[Example 8, (3R,4S)-N-{2-methoxy-5-[5-(trifluoromethyl)-1H-tetrazol-1-yl]benzyl}-1-[(methylsulfonyl)acetyl]-3-phenylpiperidine-4-amine monohydrochloride]", "values": [
      {"measurement": "pIC50", "setting": "[1]", "result": 10.66}
    ]},
    {"molecule": "CCC(=O)NCC(=O)N1CC[C@H](NCc2cc(-n3nnnc3C(F)(F)F)ccc2OC)[C@H](c2ccccc2)C1", "note": "[Example 9, N-{2-[(3R,4S)-4-({2-methoxy-5-[5-(trifluoromethyl)-1H-tetrazol-1-yl]benzyl}amino)-3-phenylpiperidin-1-yl]-2-oxoethyl}propanamide monohydrochloride]", "values": [
      {"measurement": "pIC50", "setting": "[1]", "result": 10.92}
    ]},
    {"molecule": "COc1ccc(-n2nnnc2C(F)(F)F)cc1CN[C@H]1CCN(C(=O)C2CCNCC2)C[C@H]1c1ccccc1", "note": "[Example 10, (3R,4S)-N-(2-methoxy-5-[5-(trifluoromethyl)-1H-tetrazol-1-yl]benzyl)-3-phenyl-1-(piperidin-4-ylcarbonyl)piperidine-4-amine dihydrochloride]", "values": [
      {"measurement": "pIC50", "setting": "[1]", "result": 10.80}
    ]},
    {"molecule": "COc1ccc(-n2nnnc2C(F)(F)F)cc1CN[C@H]1CCN(C(=O)C2CCN(S(C)(=O)=O)CC2)C[C@H]1c1ccccc1", "note": "[Example 11, (3R,4S)-N-{2-methoxy-5-[5-(trifluoromethyl)-1H-tetrazol-1-yl]benzyl}-1-{[1-(methylsulfonyl)piperidin-4-yl]carbonyl}-3-phenylpiperidine-4-amine monohydrochloride]", "values": [
      {"measurement": "pIC50", "setting": "[1]", "result": 10.68}
    ]},
    {"molecule": "COc1ccc(-n2nnnc2C(F)(F)F)cc1CN[C@H]1CCN(C(=O)CNC(C)=O)C[C@H]1c1ccccc1", "note": "[Example 20, N-{2-[(3R,4S)-4-({2-methoxy-5-[5-(trifluoromethyl)-1H-tetrazol-1-yl]benzyl}amino)-3-phenylpiperidin-1-yl]-2-oxoethyl}acetamide]", "values": [
      {"measurement": "pIC50", "setting": "[1]", "result": 10.77},
      {"measurement": "changes in bladder capacity (vs. before administration, %)", "setting": "[2]; dose 0.01 mg/kg intravenously", "result": "5.8 ± 11.1", "unit": "%"},
      {"measurement": "changes in voiding pressure (vs. before administration, %)", "setting": "[2]; dose 0.01 mg/kg intravenously", "result": "10.1 ± 8.4", "unit": "%"},
      {"measurement": "changes in bladder capacity (vs. before administration, %)", "setting": "[2]; dose 0.03 mg/kg intravenously", "result": "3.0 ± 8.2", "unit": "%"},
      {"measurement": "changes in voiding pressure (vs. before administration, %)", "setting": "[2]; dose 0.03 mg/kg intravenously", "result": "18.5 ± 18.5", "unit": "%"},
      {"measurement": "changes in bladder capacity (vs. before administration, %)", "setting": "[2]; dose 0.1 mg/kg intravenously", "result": "42.9 ± 6.0", "unit": "%"},
      {"measurement": "changes in voiding pressure (vs. before administration, %)", "setting": "[2]; dose 0.1 mg/kg intravenously", "result": "3.0 ± 8.0", "unit": "%"},
      {"measurement": "changes in bladder capacity (vs. before administration, %)", "setting": "[2]; dose 0.3 mg/kg intravenously", "result": "71.2 ± 25.2", "unit": "%"},
      {"measurement": "changes in voiding pressure (vs. before administration, %)", "setting": "[2]; dose 0.3 mg/kg intravenously", "result": "4.9 ± 11.0", "unit": "%"},
      {"measurement": "effect on bladder capacity (in words)", "setting": "[2]", "result": "increased the bladder capacity in a dose-dependent manner"},
      {"measurement": "effect on voiding pressure (in words)", "setting": "[2]", "result": "without affecting the voiding pressure"}
    ]},
    {"molecule": "CCN(CC)CC#CCOC(=O)C(O)(c1ccccc1)C1CCCCC1", "note": "(centres unmarked) [oxybutynin]", "values": [
      {"measurement": "changes in bladder capacity (vs. before administration, %)", "setting": "[2]; dose 0.1 mg/kg intravenously", "result": "1.8 ± 7.0", "unit": "%"},
      {"measurement": "changes in voiding pressure (vs. before administration, %)", "setting": "[2]; dose 0.1 mg/kg intravenously", "result": "4.3 ± 7.5", "unit": "%"},
      {"measurement": "changes in bladder capacity (vs. before administration, %)", "setting": "[2]; dose 0.3 mg/kg intravenously", "result": "19.3 ± 5.1", "unit": "%"},
      {"measurement": "changes in voiding pressure (vs. before administration, %)", "setting": "[2]; dose 0.3 mg/kg intravenously", "result": "−11.6 ± 5.4", "unit": "%"},
      {"measurement": "changes in bladder capacity (vs. before administration, %)", "setting": "[2]; dose 1 mg/kg intravenously", "result": "43.6 ± 7.7", "unit": "%"},
      {"measurement": "changes in voiding pressure (vs. before administration, %)", "setting": "[2]; dose 1 mg/kg intravenously", "result": "−12.1 ± 8.8", "unit": "%"},
      {"measurement": "changes in bladder capacity (vs. before administration, %)", "setting": "[2]; dose 3 mg/kg intravenously", "result": "36.8 ± 6.6", "unit": "%"},
      {"measurement": "changes in voiding pressure (vs. before administration, %)", "setting": "[2]; dose 3 mg/kg intravenously", "result": "−6.0 ± 5.6", "unit": "%"},
      {"measurement": "effect on bladder capacity (in words)", "setting": "[2]", "result": "significantly increased the bladder capacity"},
      {"measurement": "effect on voiding pressure (in words)", "setting": "[2]", "result": "showed lower voiding pressure"}
    ]},
    {"molecule": "Cc1ccc(O)c([C@H](CCN(C(C)C)C(C)C)c2ccccc2)c1", "note": "[tolterodine]", "values": [
      {"measurement": "changes in bladder capacity (vs. before administration, %)", "setting": "[2]; dose 1 mg/kg intravenously", "result": "−3.4 ± 4.4", "unit": "%"},
      {"measurement": "changes in voiding pressure (vs. before administration, %)", "setting": "[2]; dose 1 mg/kg intravenously", "result": "0.1 ± 5.7", "unit": "%"},
      {"measurement": "changes in bladder capacity (vs. before administration, %)", "setting": "[2]; dose 3 mg/kg intravenously", "result": "14.8 ± 7.6", "unit": "%"},
      {"measurement": "changes in voiding pressure (vs. before administration, %)", "setting": "[2]; dose 3 mg/kg intravenously", "result": "−6.7 ± 6.5", "unit": "%"},
      {"measurement": "changes in bladder capacity (vs. before administration, %)", "setting": "[2]; dose 10 mg/kg intravenously", "result": "31.7 ± 9.1", "unit": "%"},
      {"measurement": "changes in voiding pressure (vs. before administration, %)", "setting": "[2]; dose 10 mg/kg intravenously", "result": "−15.5 ± 4.6", "unit": "%"},
      {"measurement": "effect on bladder capacity (in words)", "setting": "[2]", "result": "significantly increased the bladder capacity"},
      {"measurement": "effect on voiding pressure (in words)", "setting": "[2]", "result": "voiding pressure lowering action of tolterodine was significant"}
    ]}
  ]
}
